Experimental data: patent publication US12077501B2, “Compounds and compositions for intracellular delivery of agents” (ModernaTX, Inc., priority 2017, dated 2024)

What was measured:
[1] = Particle size and polydispersity index of nanoparticle compositions (Zetasizer Nano ZS); type: physicochemical; conditions: summary of Table 1
Experimental: A Zetasizer Nano ZS (Malvem Instruments Ltd, Malvem, Worcestershire, UK) can be used to determine the particle size, the polydispersity index (PDI) and the zeta potential of the nanoparticle compositions in 1×PBS in determining particle size and 15 mM PBS in determining zeta potential.

[2] = Encapsulation efficiency of RNA (QUANT-IT RIBOGREEN RNA assay); type: physicochemical; conditions: summary of Table 1
Experimental: For nanoparticle compositions including an RNA, a QUANT-IT™ RIBOGREEN® RNA assay (Invitrogen Corporation Carlsbad, CA) can be used to evaluate the encapsulation of an RNA by the nanoparticle composition. The samples are diluted to a concentration of approximately 5 μg/mL in a TE buffer solution (10 mM Tris-HCl, 1 mM EDTA, pH 7.5). 50 μL of the diluted samples are transferred to a polystyrene 96 well plate and either 50 μL of TE buffer or 50 μL of a 2% Triton X-100 solution is added to the wells. The plate is incubated at a temperature of 37° C. for 15 minutes. The RIBOGREEN® reagent is diluted 1:100 in TE buffer, and 100 μL of this solution is added to each well. The fluorescence intensity can be measured using a fluorescence plate reader (Wallac Victor 1420 Multilablel Counter; Perkin Elmer, Waltham, MA) at an excitation wavelength of, for example, about 480 nm and an emission wavelength of, for example, about 520 nm. The fluorescence values of the reagent blank are subtracted from that of each of the samples and the percentage of free RNA is determined by dividing the fluorescence intensity of the intact sample (without addition of Triton X-100) by the fluorescence value of the disrupted sample (caused by the addition of Triton X-100).

[3] = pKa of nanoparticle compositions; type: physicochemical; conditions: Table 1b
[4] = Lipid clearance: % dose remaining in liver of CD-1 mice; type: in vivo; conditions: intravenous, 0.5 mg/kg, CD-1 mouse, Table 8a
Description: In contrast, hEPO expression in rats induced by administration of a nanoparticle composition including a compound according to one of formulae (I), (Ia1)-(Ia6), (Ib), (II), (IIa), (III), and (IIIa) was substantially […] than that measured for MC3. […] Tables 7c and 7d show additional protein expressions and clearance data from compositions with various compounds disclosed herein as compared to with MC3. Tables 7e, 7f and 7g show hEPO expression data in CD-1 mice at a dose of 0.5 mpk.

Compound | particle size ranking amongst the compositions of Tables 1 and 1a [1] | encapsulation efficiency ranking amongst the compositions of Tables 1 and 1a [2] | pKa [3] | % Dose Remaining 6 hr [4] [%] | % Dose Remaining 24 hr [4] [%]
CCCCCCCCCCCCN(CCCCCCCCCCCC)CCN1CCN(CCN(CCCCCCCCCCCC)C(=O)CN(CCCCCCCCCCCC)CCCCCCCCCCCC)CC1 [Compound 1, 2-(Didodecylamino)-N-(2-(4-(2-(didodecylamino)ethyl)piperazin-1-yl)ethyl)-N-dodecylacetamide] | largest particles | lowest | – | – | –
CCCCC/C=C\CCCCCN(CCCCCCCCCCCC)CCN1CCN(CCN(CCCCCCCCCCCC)CCN(CCCCCCCCCCCC)CCCCCCCCCCCC)CC1 [Compound 24, (Z)—N^1-(2-(4-(2-(Dodec-6-en-1-yl(dodecyl)amino)ethyl)piperazin-1-yl)ethyl)-N^1,N^2,N^2-tridodecylethane-1,2-diamine] | – | lowest | – | – | –
CCCCC/C=C\C/C=C\CCCCCCCCN(CCCCCCCC/C=C\C/C=C\CCCCC)CCN(CCCCCCCC/C=C\C/C=C\CCCCC)CCN1CCN(CCN(CCCCCCCCCCCC)CCCCCCCCCCCC)CC1 [Compound 34, N^1-(2-(4-(2-(Didodecylamino)ethyl)piperazin-1-yl)ethyl)-N^1,N^2,N^2-tri((9Z,12Z)-octadeca-9,12-dien-1-yl)ethane-1,2-diamine] | smallest particles | – | – | – | –
CCCCCCCCCN(CCCCCCCCC)CCN(CCCCCCCCC)CCN1CCNCC1 [Compound 36, N^1,N^1,N^2-Trinonyl-N^2-(2-(piperazin-1-yl)ethyl)ethane-1,2-diamine] | – | highest | – | – | –
CCCCCCCCCCCCN(CCCCCCCCCCCC)CCN(CCCCCCCCCCCC)CCN1CCNCC1 [Compound 37, N^1,N^1,N^2-Tridodecyl-N^2-(2-(piperazin-1-yl)ethyl)ethane-1,2-diamine] | – | highest | – | – | –
CCCCCCCC/C=C\CCCCCCCCN(CCCCCCCC/C=C\CCCCCCCC)CCN(CCCCCCCC/C=C\CCCCCCCC)CCN1CCNCC1 [Compound 40, N^1,N^1,N^2-Tri((Z)-octadec-9-en-1-yl)-N^2-(2-(piperazin-1-yl)ethyl)ethane-1,2-diamine] | – | highest | – | – | –
CCCCC/C=C\C/C=C\CCCCCCCCN(CCCCCCCC/C=C\C/C=C\CCCCC)CCN(CCCCCCCC/C=C\C/C=C\CCCCC)CCN1CCNCC1 [Compound 41, N^1,N^1,N^2-Tri((9Z,12Z)-octadeca-9,12-dien-1-yl)-N^2-(2-(piperazin-1-yl)ethyl)ethane-1,2-diamine] | – | highest | – | – | –
CCCCCCCCCN(CCCCCCCCC)CCN(CCCCCCCCC)CCC1CCN(C(=O)CN(CCCCCCCCC)CCCCCCCCC)CC1 [Compound 50, 2-(Dinonylamino)-1-(4-(2-((2-(dinonylamino)ethyl)(nonyl)amino)ethyl)piperidin-1-yl)ethan-1-one] | smallest particles | – | – | – | –
CCCCCCCCCN(CCCCCCCC(=O)OC)CCC1CCN(C(=O)CN(CCCCCCCCC)CCN(CCCCCCCCC)CCCCCCCCC)CC1 [Compound 57, Methyl 8-((2-(1-(N-(2-(dinonylamino)ethyl)-N-nonylglycyl)piperidin-4-yl)ethyl)(nonyl)amino)octanoate] | – | – | 6.73 | – | –
CCCCCCCCCN(CCCCCCC(=O)OCC)CCC1CCN(C(=O)CN(CCCCCCCCC)CCN(CCCCCCCCC)CCCCCCCCC)CC1 [Compound 58, Ethyl 7-((2-(1-(N-(2-(dinonylamino)ethyl)-N-nonylglycyl)piperidin-4-yl)ethyl)(nonyl)amino)heptanoate] | – | – | 6.7 | – | –
CCCCCCCCCN(CCCCCCCCC)CCC1CCN(C(=O)CN(CCCCCCCCC)CCN(CCCCCCCCC)CCCCCCCCC)C1 (stereo not shown) [Compound 69, 2-((2-(Dinonylamino)ethyl)(nonyl)amino)-1-(3-(2-(dinonylamino)ethyl)pyrrolidin-1-yl)ethan-1-one] | – | – | 7.01 | 59.21 | 52.03
CCCCCCCCCN(CCCCCCCCC)CCN(CCCCCCCCC)CC(=O)N1CCC(CN(CCCCCCCCC)CCCCCCCCC)C1 (stereo not shown) [Compound 70, 2-((2-(Dinonylamino)ethyl)(nonyl)amino)-1-(3-((dinonylamino)methyl)pyrrolidin-1-yl)ethan-1-one] | – | – | 6.75 | 56.30 | 57.20
CCCCCCCCCN(CCCCCCCCC)CCC1CCCN(C(=O)CN(CCCCCCCCC)CCN(CCCCCCCCC)CCCCCCCCC)C1 (stereo not shown) [Compound 73, 2-((2-(Dinonylamino)ethyl)(nonyl)amino)-1-(3-(2-(dinonylamino)ethyl)piperidin-1-yl)ethan-1-one] | – | – | 6.65 | 68.53 | 64.75

Further lines, results first:

particle size ranking amongst the compositions of Tables 1 and 1a [1] | encapsulation efficiency ranking amongst the compositions of Tables 1 and 1a [2] | pKa [3] | % Dose Remaining 6 hr [4] [%] | % Dose Remaining 24 hr [4] [%] | Compound
– | – | 6.91 | – | – | CCCCCCCCCN(CCCCCCCCC)CCN(CCCCCCCCC)CC(=O)N1CCN(C(=O)CN(CCCCCCCCC)CCCCCCC(=O)OCC)CC1 [Compound 53, Ethyl 7-((2-(4-(N-(2-(dinonylamino)ethyl)-N-nonylglycyl)piperazin-1-yl)-2-oxoethyl)(nonyl)amino)heptanoate]
– | – | 6.88 | – | – | CCCCCCCCCN(CCCCCCCCC)CCN(CCCCCCCCC)CC(=O)N1CCN(C(=O)CN(CCCCCCCCC)CCCCCC(=O)OCCC)CC1 [Compound 54, Propyl 6-((2-(4-(N-(2-(dinonylamino)ethyl)-N-nonylglycyl)piperazin-1-yl)-2-oxoethyl)(nonyl)amino)hexanoate]
– | – | 6.96 | – | – | CCCCCCCCCN(CCCCCCCCC)CCN(CCCCCCCCC)CC(=O)N1CCN(C(=O)CN(CCCCCCCCC)CCCCC(=O)OCCCC)CC1 [Compound 55, Butyl 5-((2-(4-(N-(2-(dinonylamino)ethyl)-N-nonylglycyl)piperazin-1-yl)-2-oxoethyl)(nonyl)amino)pentanoate]
– | – | 6.68 | – | – | CCCCCCCCCN(CCCCCC(=O)OCCC)CCC1CCN(C(=O)CN(CCCCCCCCC)CCN(CCCCCCCCC)CCCCCCCCC)CC1 [Compound 59, Propyl 6-((2-(1-(N-(2-(dinonylamino)ethyl)-N-nonylglycyl)piperidin-4-yl)ethyl)(nonyl)amino)hexanoate]
– | – | 7.56 | 16.99 | 14.36 | CCCCCCCCCN(CCCC(=O)OCCCCC)CCC(=O)N1CCN(C(=O)CCN(CCCCCCCCC)CCN(CCCCCCCCC)CCCCCCCCC)CC1 [Compound 62, Pentyl 4-((3-(4-(3-((2-(dinonylamino)ethyl)(nonyl)amino)propanoyl)piperazin-1-yl)-3-oxopropyl)(nonyl)amino)butanoate]
– | – | 7.19 | – | – | CCCCCCCCCN(CCCCCCCCC)CCN(CCCCCCCCC)CC(=O)N1CCN(C(=O)CN(CCCC(=O)OCCCCC)CCCC(=O)OCCCCC)CC1 [Compound 72, Dipentyl 4,4′-((2-(4-(N-(2-(dinonylamino)ethyl)-N-nonylglycyl)piperazin-1-yl)-2-oxoethyl)azanediyl)dibutyrate]
– | – | 6.78 | 23.78 | 25.25 | CCCCCCCCCN(CCCC(=O)OCCCCC)CCC1CCCN(C(=O)CN(CCCCCCCCC)CCN(CCCCCCCCC)CCCCCCCCC)C1 (stereo not shown) [Compound 80, Pentyl 4-((2-(1-(N-(2-(dinonylamino)ethyl)-N-nonylglycyl)piperidin-3-yl)ethyl)(nonyl)amino)butanoate]
– | – | 7.22 | 15.28 | 19.27 | CCCCCCCCCN(CCCC(=O)OCCCCC)CCC1CCN(C(=O)CN(CCCCCCCCC)CCN(CCCCCCCCC)CCCCCCCCC)C1 (stereo not shown) [Compound 81, Pentyl 4-((2-(1-(N-(2-(dinonylamino)ethyl)-N-nonylglycyl)pyrrolidin-3-yl)ethyl)(nonyl)amino)butanoate]
– | – | 7.05 | 37.85 | 38.66 | CCCCCCCCCN(CCCCCCCCC)CCN(CCCCCCCCC)CC(=O)N1CCC(CN(CCCCCCCCC)CCCC(=O)OCCCCC)C1 (stereo not shown) [Compound 82, Pentyl 4-(((1-(N-(2-(dinonylamino)ethyl)-N-nonylglycyl)pyrrolidin-3-yl)methyl)(nonyl)amino)butanoate]
– | – | 6.72 | 31.32 | 30.54 | CCCCCCCCCN(CCCC(=O)OCCCCC)CCC1CCN(C(=O)CN(CCCCCCCCC)CCN(CCCCCCCCC)CCCCCCCCC)CC1 [Compound 83, Pentyl 4-((2-(1-(N-(2-(dinonylamino)ethyl)-N-nonylglycyl)piperidin-4-yl)ethyl)(nonyl)amino)butanoate]
– | – | 7.01 | 21.23 | 20.86 | CCCCCCCCCN(CCCC(=O)OCCCCC)CCCC1CCN(C(=O)CCN(CCCCCCCCC)CCN(CCCCCCCCC)CCCCCCCCC)CC1 [Compound 84, Pentyl 4-((3-(1-(3-((2-(dinonylamino)ethyl)(nonyl)amino)propanoyl)piperidin-4-yl)propyl)(nonyl)amino)butanoate]
